Laboratory results from patent US7563935B2, “Crystal forms of astaxanthin” (Phares Pharmaceutical Research N.V. et al., priority 2005, dated 2009).

Key:
Assay type in all cases: physicochemical
[1] = Solubility profile in dichloromethane; conditions: 20° C.-25° C.
[2] = Solubility and rate of dissolution in organo-solvents or oils (comparison of crystal forms); conditions: Form I vs Form II
[3] = Stability of the crystal in the dry form

Compound	solubility profile in dichloromethane [1]	rate of dissolution in organo-solvents or oils relative to the other crystal form [2]	solubility in organo-solvents or oils relative to the other crystal form [2]	stability [3]
CC1=C(/C=C/C(C)=C/C=C/C(C)=C/C=C/C=C(C)/C=C/C=C(C)/C=C/C2=C(C)C(=O)C(O)CC2(C)C)C(C)(C)CC(O)C1=O (stereo not drawn) [Crystal Form I, 3,3′-dihydroxy-β,β-carotene-4,4′-dione]	35 to 45 g/L	higher	higher solubility	stable in the dry form
CC1=C(/C=C/C(C)=C/C=C/C(C)=C/C=C/C=C(C)/C=C/C=C(C)/C=C/C2=C(C)C(=O)C(O)CC2(C)C)C(C)(C)CC(O)C1=O (stereo not drawn) [Crystal Form II, 3,3′-dihydroxy-β,β-carotene-4,4′-dione]	10-30 g/l		lower solubility	
